Assay results published in patent US20060134063A1, “Agents for proliferating pancreatic beta-cells of the islets of langerhans, agents for suppressing apoptosis of said cells, and screening of candidate compounds for these agents” (priority 2000, published 2006).
Each block holds one molecule with its values, some of them ahead of it.

Experiments:
[1] = target: T1, poly(ADP-ribose) synthetase/polymerase (PARP) (Rattus norvegicus, UniProt P27008); assay: GMSA binding reaction of RINm5F nuclear extracts, effects of ADP-ribosylation; assay type: biochemical; details: for intensity of the IL-6/dexamethasone/nicotinamide-dependent GMSA band: added to the binding reaction prior to the 32P-probe
T1 construct: Nuclear extracts from RINm5F cells were prepared as described; endogenous in cells; host or cells: RINm5F (rat insulinoma) nuclear extract
Protocol: The nuclear extract (10 μg) was incubated in a final volume of 20 μl of buffer containing 20 mM Tris-HCl (pH 7.9), 2 mM MgCl2, 50 mM NaCl, 2 mM EDTA, 10% glycerol, 0.1% Nonidet P-40, 1 mM DTT, 50 μg/ml bovine serum albumin and 1 μg of poly(dI-dC). After incubation for 10 min at room temperature, 2.5 pmol of double-stranded DNA, previously labeled by an exchange reaction using MEGALABEL (Takara Shuzo) and [γ-^32P]ATP (Amersham Pharmacia Biotech), were added and incubated for 30 min at room temperature, then the binding reactions were resolved on pre-run 6% acrylamide gel. […] After electrophoresis, DNA/proteins were electrophoretically transferred to a PolyScreen™ PVDF membrane (NEN).
Poly(ADP-ribosyl)ation of nuclear proteins was performed in the same condition as GMSA in the presence of 62 nM [adenylate-^32P]NAD^+ (2×10^6 cpm, NEN). The ADP-ribosylated proteins were precipitated by the addition of 9 volume of acetone, separated by SDS-PAGE (12.5%) and autoradiographed.

[2] = tested on: 5'-flanking region of the rat Reg gene; assay: Reg promoter/luciferase reporter assay in RINm5F cells; assay type: cell-based; details: 2,303-bp Reg 5'-flanking fragment; 24 h stimulation
Protocol: A 2,303-bp fragment containing the 5′-flanking region of Reg gene was fused to the luciferase gene and transfected into RINm5F β-cells.
Specifically, luciferase reporter gene constructs were generated as described in Miyashita, H. et al. (1994) Biochim. Biophys. Acta, 1219, 241-243. RINm5F cells were seeded at 1×10^5 cells/well in 24-well dish. After 48 h, 3.0 μg of test plasmid and 0.2 μg of pCMV-SPORT β-gal (Life Technologies, Inc.) were transfected by lipofection (Felgner, J. H. et al. (1994) J. Biol. Chem., 269, 2550-2561) using DMRIE-C™ (Life Technologies, Inc.). After 24 h, the medium of each dish was replaced with fresh medium containing stimulants and incubated further for 24 h. Cells were harvested in 1 ml of ice-cold phosphate-buffered saline (PBS), washed twice with PBS, and extracts were prepared in extraction buffer (0.1 M potassium phosphate, pH 6.8, 1 mM DTT). The protein concentration was determined using a Coomassie reagent kit (Pierce) and bovine serum albumin as a standard. Luciferase activity was determined by a chemiluminescence substrate using a Pica Gene™ Luminescence Kit (Toyo Ink Mfg. Co, Ltd., Tokyo, Japan). β-galactosidase activity was determined using Aurora™ GAL-XE (ICN).

Reg protein = assay: Immunoblot of secreted Reg protein in RINm5F culture medium; assay type: cell-based, rat; details: 24 h incubation with stimulants
Protocol: The Reg protein levels in the RINm5F cultured media were examined after stimulation. After 24-hour incubation of the cells in a medium supplemented with stimulants, the medium was collected, and subjected to immunoblot analyses as described in Watanabe, T. et al. (1990) J. Biol. Chem., 265, 7432-7439. The medium of RINm5F cells was subjected to SDS polyacrylamide gel electrophoresis (SDS-PAGE) and electrotransferred to a PVDF membrane as described in Takasawa, S. et al. (1993) J. Biol. Chem., 268, 26052-26054. Western blotting was carried out using an anti-rat Reg monoclonal antibody (Terazono, K. et al. (1990) Diabetologia, 33, 250-252).

Reg gene = assay: RT-PCR of Reg gene expression in RINm5F cells; assay type: cell-based, rat; details: 24 h with stimulants
Protocol: The Reg gene expression was analyzed by RT-PCR. The cells were harvested after 24 h of culturing in a medium supplemented with stimulants, and total RNA was prepared using cesium trifluoroacetate as described in Takasawa, S. et al. (1993) J. Biol. Chem., 268, 26052-26054. RT-PCR was performed using primers corresponding to nucleotides 23 to 43 and 572 to 593 of rat Reg mRNA (Terazono, K. et al. (1988) J. Biol. Chem., 263, 2111-2114).

[3] = tested on: RINm5F cell lines, #1, #6, and #24, which stably express the Reg protein receptor; assay: TUNEL apoptosis assay in RINm5F cell lines #1, #6, #24 expressing Reg protein receptor; assay type: cell-based, rat; details: HGF 0, 2.5, 25 ng/ml; 24 h; every cell line
Protocol: Rat insulinoma RINm5F cell lines, #1, #6, and #24, which stably express Reg protein receptor (Kobayashi, S. et al. (2000) J. Biol. Chem. 275, 10723-10726) were similarly cultured as in Example 4 and 1,000 nM Reg protein and HGF at varied concentrations, 0, 2.5, and 25 ng/ml were added thereto. Twenty-four hours after the addition of Reg protein/HGF, apoptosis was measured by TUNEL method using an Apoptosis Screening kit (Wako Pure Chemical Industries Ltd., Osaka, Japan) as described in Kobayashi, S. et al. (2000) J. Biol. Chem. 275, 10723-10726.

90% depancreatized rats = details: cited from earlier work
[4] = tested on: RINm5F cell lines, #1, #6, and #24, which stably express the Reg protein receptor; details: 1,000 nM Reg protein added to culture media; cited from earlier work
[5] = tested on: non-obese diabetic (NOD) mice; details: cited from earlier work

T1 sequence (P27008 whole entry): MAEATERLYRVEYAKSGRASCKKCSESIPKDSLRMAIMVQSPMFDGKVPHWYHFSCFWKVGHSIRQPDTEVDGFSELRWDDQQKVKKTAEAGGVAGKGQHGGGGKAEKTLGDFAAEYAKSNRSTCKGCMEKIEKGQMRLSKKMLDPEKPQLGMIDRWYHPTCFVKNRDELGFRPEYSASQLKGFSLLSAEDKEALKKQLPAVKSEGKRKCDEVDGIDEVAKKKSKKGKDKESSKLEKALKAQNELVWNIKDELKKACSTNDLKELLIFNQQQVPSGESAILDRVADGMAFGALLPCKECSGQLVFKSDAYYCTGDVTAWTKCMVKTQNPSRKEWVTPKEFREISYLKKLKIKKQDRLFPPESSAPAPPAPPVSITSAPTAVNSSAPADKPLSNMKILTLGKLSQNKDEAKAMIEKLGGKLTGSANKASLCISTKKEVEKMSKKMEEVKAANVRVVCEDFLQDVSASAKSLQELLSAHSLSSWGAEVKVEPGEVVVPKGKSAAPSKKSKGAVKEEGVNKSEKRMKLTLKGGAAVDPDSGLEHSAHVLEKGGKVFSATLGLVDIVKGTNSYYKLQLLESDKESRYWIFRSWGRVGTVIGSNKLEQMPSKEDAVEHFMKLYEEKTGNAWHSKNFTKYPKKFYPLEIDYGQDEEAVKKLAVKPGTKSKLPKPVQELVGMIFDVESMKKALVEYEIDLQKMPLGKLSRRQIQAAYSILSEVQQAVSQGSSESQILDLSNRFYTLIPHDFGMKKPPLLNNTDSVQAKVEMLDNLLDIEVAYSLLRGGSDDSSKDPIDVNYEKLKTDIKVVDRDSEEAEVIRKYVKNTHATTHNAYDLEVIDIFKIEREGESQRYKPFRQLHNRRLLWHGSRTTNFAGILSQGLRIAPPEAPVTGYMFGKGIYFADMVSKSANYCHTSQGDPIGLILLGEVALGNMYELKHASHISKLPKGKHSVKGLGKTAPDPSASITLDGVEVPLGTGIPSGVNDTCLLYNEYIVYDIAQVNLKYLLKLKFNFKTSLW

- intensity of the IL-6/dexamethasone/nicotinamide-dependent GMSA band [1]: did not attenuate the band intensity
Molecule: N=c1c2ncn3c2ncn1[C@@H]1O[C@H](COP(=O)(O)OP(=O)(O)OC[C@H]2O[C@@H]3[C@H](O)[C@@H]2O)[C@@H](O)[C@H]1O [cyclic ADP-ribose]

- intensity of the IL-6/dexamethasone/nicotinamide-dependent GMSA band [1]: attenuated
Molecule: NC(=O)c1ccc[n+]([C@@H]2O[C@H](COP(=O)([O-])OP(=O)(O)OC[C@H]3O[C@@H](n4cnc5c(N)ncnc54)[C@H](O)[C@@H]3O)[C@@H](O)[C@H]2O)c1 [β-NAD^+]

Molecule: IL-6: interleukin (IL)-6, a cytokine whose receptor is gp130 (Genzyme)
- luciferase activity (result in words) [2]: ineffective
- Reg protein secretion into the medium (Reg protein): did not induce Reg protein secretion
- Reg gene expression (Reg mRNA) (Reg gene): no effect on Reg expression

- intensity of the IL-6/dexamethasone/nicotinamide-dependent GMSA band [1]: did not attenuate the band intensity
Molecule: Nc1ncnc2c1ncn2[C@@H]1O[C@H](COP(=O)(O)OP(=O)(O)OC[C@H]2OC(O)[C@H](O)[C@@H]2O)[C@@H](O)[C@H]1O (some centres unmarked) [ADP-ribose]

Molecule: HGF: hepatocyte growth factor (HGF; Sigma)
- apoptosis induced by 1,000 nM Reg protein (TUNEL) [3]: concentration-dependently inhibited apoptosis

Molecule: IL-1β: IL-1β (Sigma), stimulant
- Reg gene expression (Reg mRNA) (Reg gene): no effect on Reg expression

Molecule: TNFα
- Reg gene expression (Reg mRNA) (Reg gene): no effect on Reg expression

Molecule: NC(=O)c1cccc(N)c1 [3-aminobenzamide]
- luciferase activity (result in words) [2]: ineffective
- IC50 ([1]; 1 mM β-NAD+ in the GMSA binding reaction, read-out: concentrations of half maximal inhibition (quenching of the effect of β-NAD+ on the GMSA band)): 30 µM
- development of diabetes after 90% pancreatectomy (90% depancreatized rats; PARP inhibitor-treated rats): preventing the development of diabetes
- Reg gene expression (Reg mRNA) (Reg gene): no effect on Reg expression

- intensity of the IL-6/dexamethasone/nicotinamide-dependent GMSA band [1]: not
Molecule: NC(=O)c1ccc[n+]([C@H]2O[C@H](COP(=O)(O)OP(=O)(O)OC[C@H]3O[C@@H](n4cnc5c(N)ncnc54)[C@H](O)[C@@H]3O)[C@@H](O)[C@H]2O)c1 [α-NAD^+]

B1: Reg protein: product of Reg (regenerating gene), stimulates β-cell proliferation (protein)
chain: QEAEEDLPSARITCPEGSNAYSSYCYYFMEDHLSWAEADLFCQNMNSGYLVSVLSQAEGNFLASLIKESGTTAANVWIGLHDPKNNRRWHWSSGSLFLYKSWDTGYPNNSNRGYCVSVTSNSGYKKWRDNSCDAQLSFVCKFKA
- proliferation and apoptosis of the cells [4]: induced not only proliferation but also apoptosis

B2: Recombinant rat Reg protein: recombinant rat Reg protein, 165-amino acid protein with a 21-amino acid signal peptide (protein, UniProt P10758 1-165, looked up)
chain: MTRNKYFILLSCLMVLSPSQGQEAEEDLPSARITCPEGSNAYSSYCYYFMEDHLSWAEADLFCQNMNSGYLVSVLSQAEGNFLASLIKESGTTAANVWIGLHDPKNNRRWHWSSGSLFLYKSWDTGYPNNSNRGYCVSVTSNSGYKKWRDNSCDAQLSFVCKFKA
modifications: full-length
notes: recombinant rat Reg protein, 165-amino acid protein with a 21-amino acid signal peptide
- β-cell replication and β-cell mass in the residual pancreas (90% depancreatized rats; 90% depancreatized rats): stimulated β-cell replication and increased the β-cell mass

B3: Human REG protein: human REG protein, 166-amino acid protein with 68% identity to rat Reg protein (protein, UniProt P05451 1-166, looked up)
chain: MAQTSSYFMLISCLMFLSQSQGQEAQTELPQARISCPEGTNAYRSYCYYFNEDRETWVDADLYCQNMNSGNLVSVLTQAEGAFVASLIKESGTDDFNVWIGLHDPKKNRRWHWSSGSLVSYKSWGIGAPSSVNPGYCVSLTSSTGFQKWKDVPCEDKFSFVCKFKN
modifications: full-length
notes: human REG protein, 166-amino acid protein with 68% identity to rat Reg protein
- β-cell mass [5]: induced an expansion of the β-cell mass
